Data on 88 compounds can be found in a melting point compilation (Tetko et al.; mined from patent text by program, amines drawn as free bases though some values may be those of a salt).

Where only a bound is given, the exact number is not on record here.

`CCCCCCCCCCCCCCCCCNC(=O)Oc1cccc(N)c1` yielded a melting point of 69 to 75 °C. `c1ccc2c(c1)-c1ccccc1C21c2ccccc2-c2ccc(-n3ccnc3-c3nccn3-c3ccc4c(c3)C3(c5ccccc5-c5ccccc53)c3ccccc3-4)cc21` gave a melting point of 404 to 412 °C. With `O=c1[nH]c2c(F)cccc2o1`, the melting point lay in the range of 131 to 133 °C. Take `Cc1ccc(CC(C)NCC(O)c2ccccc2)cc1` (stereo not drawn): the melting point is 74 to 94 °C. The compound `CC1(C)Cc2c(cc(C(C)(C)C)c(O)c2C(C)(C)C)S1` returned a melting point of 79 °C. As for `CS(=O)(=O)c1ccc(-c2cnn(Cc3ccc(F)cc3)c(=O)c2-c2ccc(F)cc2)cc1`, the figure is 153 to 154 °C. As for `CC1(C)CCC(C)(C)c2cc3oc(-c4ccc(CO)cc4)nc3cc21`, the figure is 200 °C. As to `Cc1cc2oc(=O)c3c(c2cc1[N+](=O)[O-])CCN(CCN1CC2CCC(CC2)C1)C3`, the melting point fell in the range of 187 to 188 °C. As for `COC(=O)C1(NC(=O)Cc2cc(-c3ccc(Cl)cc3)ccc2C)CCCC(C(F)(F)F)C1` (stereo not drawn), the figure is 149 °C; as for `CC(C)(C)c1nc(C=NO)nc(C(C)(C)C)c1O`, 205 to 220 °C. As for `CCC(C)(C)c1ccc(OCC2CN=C(N)O2)cc1` (stereo not drawn), the figure is 104 °C.

Compound `COc1ccc(C(C)=Nc2ccc(C3=NNC(=O)CC3)cc2)c(O)c1` returned a melting point of 269 °C. As for `CCCNC(=S)c1ccc2c(c1)N(C(C)CN1CCCC1)c1ccccc1S2` (racemic), the melting point lay in the range of 150 to 152 °C. With `CC(C)(C)c1ccc(S(=O)(=O)CC(=O)N=C=O)cc1`, the melting point amounted to 163 °C. As for `Brc1ccc(OCCC(c2ccccc2)c2ccccc2)cc1`, the figure is 70 to 71 °C; as for `CC(C)n1nc(-c2nc(Oc3ccc(F)cc3)c(N)nc2-c2ccccc2)ccc1=O`, 173 to 175 °C.

`CCOC(=O)c1cn(-c2cc(N)c(F)c(F)c2F)c2cc(F)c(F)cc2c1=O`: the melting point lay within 116 to 124 °C. The value for `C[C@](N)(CO)CCc1ccc2oc(-c3ccc(O)cc3)nc2c1` was 229 to 231 °C; that for `Nc1ccnc2cc(Br)cnc12` was 168 to 169 °C. `Nc1nnc(-c2ccc(C(F)(F)F)cc2)cc1C(F)(F)F` gave a melting point of 186 to 190 °C. The value for `c1coc(P(CCP(c2ccco2)c2ccco2)c2ccco2)c1` was 94 to 96 °C. Take `O=C(O)Cn1c(=O)c2cc(Cl)ccc2n(Cc2ccc(Br)cc2F)c1=O`: the melting point is 189 °C. The value for `CC(C)c1cccc(C(C)C)c1NC(=O)C1CCCC(Cc2ccccn2)(c2ccccc2)C1=O` (stereo not drawn) was 164 to 166 °C; that for `Cc1cccc2c(=O)[nH]c(C3CN4CCC3CC4)nc12` (stereo not drawn) was 230 to 231 °C; that for `CC(C)(C)CNc1ccnc2sc(C(N)=O)c(N)c12` was 238 to 240 °C. Consider `O=c1c2c(Cl)cc(Cl)cc2n(Cc2ccccc2)c(=O)n1CC1CCCCC1`, for which the melting point was 147 to 149 °C. Consider `CC(=O)c1ccc(S(=O)(=O)NCCN2CCOCC2)cc1`, for which the melting point lay within 128 to 129 °C. As for `CN1CC(CCN2CCOCC2)c2nc3ccccc3n2C1=O` (stereo not drawn), the figure is 111 to 112 °C; as for `CC1(N)CCN(C2=Nc3c(nc(Cl)nc3Nc3ccc(F)c(Cl)c3)CN2)CC1`, 212 °C.

With `COc1ccnc2c1c(C(C)=O)cn2S(=O)(=O)c1ccccc1`, the melting point fell in the range of 156 to 158 °C. Consider `CC=CC(=O)c1oc2c(-c3ccc(F)cc3)c(-c3ccc(S(C)(=O)=O)cc3)nn2c1C`, for which the melting point lay within 197 to 199 °C. In turn, `COC(=O)[C@H](CO)NC(=O)[C@H](CS)NC(C)=O` came in with a melting point of 127 to 128 °C. The value for `Cc1ccc(S(=O)(=O)OCC2COc3cccc4[nH]c(=O)n2c34)cc1` (stereo not drawn) was 140 to 142 °C; that for `COc1cc2ccc(-c3ccccc3N)cc2cc1OC` was 215 to 217 °C; that for `COc1cc(Nc2nccc(-c3ccc(NCCCN4CCOCC4)nc3)n2)cc(OC)c1OC` was 165 to 166 °C.

`CCc1cc2c(=O)[nH]c(CO)nc2s1`: the melting point amounted to 202 °C. In turn, `CC(C)(C)OC(=O)NC(Cc1ccccc1F)C(=O)N1CCSC1` (stereo not drawn) returned a melting point of 133 to 134 °C.

`C=Cc1ccc(NC(=O)C(C)C)nc1` returned a melting point of 77 to 78 °C.

For `CCOC(=O)c1ccc2nnc(-c3ncc([N+](=O)[O-])n3C)n2n1`, the melting point was 180 to 182 °C. As to `C[C@H](NC(=O)OC(C)(C)C)C(=O)OCCCCNc1cccc2c1C(=O)c1ccccc1C2=O`, the melting point came out at 100 °C. As for `Nc1ccc2ccc(-c3ccc(F)cc3)nc2n1`, the figure is 175 °C; as for `CN(CCCS(=O)CCCC(F)(F)C(F)(F)F)CCOc1ccc(C2=C(c3ccccc3)CCCc3ccccc32)cc1` (stereo not drawn), 74 to 77 °C; as for `O=S(=O)(c1ccc(O)cc1)c1ccc(F)cc1`, 150 to 154 °C.

Compound `CCOC(=O)C=C(Nc1ccc(O)c(=O)cc1)C(=O)OCC` showed a melting point of 108 °C. The value for `C=CCc1ccccc1OC(CC)C(=O)OC1CC(O)C=C2C=CC(C)C(CCC3CC(O)CC(=O)O3)C21` (mixture of isomers) was 143 to 145 °C; that for `C=CCOc1ccc(OC(C(=O)C(C)(C)C)n2cncn2)cc1` (stereo not drawn) was 66 °C; that for `CCCCCCCCCCNC(=O)c1cccc([N+](=O)[O-])c1` was 86 to 88 °C. Consider `O=C1CCC2(F)C3Cc4ccc(O)c5c4C2(CCN3CC2CC2)C1O5` (stereo not drawn), for which the melting point was in the range of 188 to 190 °C. With `CN1N=C(c2ccccc2)CC1=O`, the melting point is 211 °C. In turn, `COC1(c2ccccc2)C=CC(=O)C=C1` displayed a melting point of 89 °C.

`Nc1cnc(NCC2CCCCC2)nc1O` registered a melting point of 180 °C. As for `COc1ccc2c(c1OC)C(=O)OC21CN(C)Cc2ccccc21` (stereo not drawn), the figure is 193 to 194 °C; as for `NC(=O)Cc1ccccc1Cn1ccc(OCc2ccc(F)cc2F)c(Br)c1=O`, 178 to 183 °C; as for `O=C1CCn2cc(C(=O)NCc3ccc(Cl)cc3)c(=O)c3cc(CN4CCOCC4)cc(c32)N1`, 235 to 240 °C.

`N#CC1c2cccc(Br)c2C=CN1C(=O)c1ccccc1` (stereo not drawn): the melting point is 177 to 178 °C. The value for `Cc1c(-c2ccc(C(=O)O)cc2)ccc(-c2ccccc2)c1-c1ccc2c(c1)C(C)(C)CCC2(C)C` was 130 to 132 °C; that for `CC(C)Oc1c(C(N)=O)oc2ccc(OCc3ccccc3)cc12` was 158 to 160 °C; that for `O=C(NCc1ccc(Cl)cc1)c1cnc2c(F)cc(CCCCCO)cc2c1O` was 193 to 195 °C. Take `CC(=O)c1ccccc1N(C)S(C)(=O)=O`: the melting point lay in the range of 98 to 99 °C. The value for `Fc1ccc2[nH]nc(-c3ccccc3)c2c1` was 124 to 125 °C; that for `CCCCCCOc1ccc(-n2c(-c3ccc(Br)cc3)ccc2-c2ccc(Br)cc2)cc1` was 201 to 202 °C. For the compound `CN1CCN(CCCn2c(N)nc3ccccc32)CC1`, the melting point lay within 195 to 197 °C. `O=C(CCc1cc(-c2ccccc2)nc2ccccc12)N1CCCCC1` gave a melting point of 110 °C.

As for `Cc1ccc(O)c(C(C)(O)c2ccccc2)c1` (stereo not drawn), the melting point turned out to be 100 °C. `CC(C)(C)OC(=O)Nc1cc(N2CCSCC2)c(I)cc1[N+](=O)[O-]` had a melting point of 132 to 134 °C. Compound `COc1cc([C@@H](O)[C@@H](C)N2CCC(O)(c3ccccc3)CC2)ccc1OCc1ccccc1` (relative stereo) showed a melting point of 131 to 132 °C. Take `CCSC(C)(C)C(=O)CC(=O)Nc1cc(NC(=O)C(CC)Oc2ccc(C(C)(C)CC)cc2C(C)(C)CC)ccc1OC` (stereo not drawn): the melting point is 65 to 67 °C. As for `Cc1nc(-c2ccccc2C(F)(F)F)c(CCC(=O)O)o1`, the figure is 118 to 119 °C. In the case of `CCCCCCCCCCCCc1ccc(S(=O)(=O)Nc2nnc(CC(=O)OCC)s2)cc1`, the melting point lay in the range of 108 to 109 °C. As for `CCCc1c(OCCCOc2ccc3c(c2CCC)OC(C(=O)OC)CC3)ccc(C(C)=O)c1O` (stereo not drawn), the figure is 70 to 72 °C; as for `CSc1ncncc1C(c1ccccc1F)C(C)(C)C(=O)O` (stereo not drawn), 204 to 205 °C. `O=[N+]([O-])c1cc(-c2nc(-c3ccco3)no2)ccc1Cl` showed a melting point of 136 to 138 °C.

Compound `CN(O)C(=O)Cc1ccc2c(c1)C(=O)c1ccccc1CO2` came in with a melting point of 118 to 120 °C. As for `CNC(=O)c1nc(-c2ccccc2)c(-c2ccc(=O)n(C(C)C)n2)s1`, the figure is 165 to 168 °C; as for `CCOC(=O)Nc1nc(-c2ccccc2)c(-c2nc3ccccc3c(=O)n2-c2ccc(Cl)cc2)s1`, above 275 °C; as for `CC1(C)C(=O)Nc2ccc(C3=NNC(=O)C4CC34)cc21` (stereo not drawn), 334 to 335 °C.

In the case of `Cc1ccc(-c2[nH]nc(CO)c2-c2ccc(S(N)(=O)=O)cc2)cc1`, the melting point stood at 130 °C. In turn, `CCCCOC(=O)[C@H](Cc1ccc(O)cc1)NC(=O)C1(NC(=O)[C@@H](S)C(C)C)CCCC1` showed a melting point of 182 to 183 °C. Compound `CCc1cccc(C)c1CNc1cc(C(=O)N(C)C)nc2c(C)c(C)[nH]c12` came in with a melting point of 260 to 262 °C.

Turning to `CCOC(=O)CSc1nc2ccc(N)cc2s1`, the melting point was in the range of 87 to 89 °C. The value for `CCOC(=O)C(=Cc1ccc(C)s1)C(=O)OCC` was 53 to 56 °C; that for `COc1cc(Br)cc(/C=C/C(=O)/C=C/c2cc(Br)cc(OC)c2)c1` was 181 to 183 °C; that for `CS(=O)(=O)c1ccc(C(CC2CCOCC2)c2cnc(-c3ccccn3)[nH]2)cc1Cl` (stereo not drawn) was 106 to 109 °C. As for `CON(C)C(=O)C(CO[Si](C)(C)C(C)(C)C)NC(=O)OC(C)(C)C` (stereo not drawn), the figure is 71 to 72 °C.

`CC(=O)Nc1c(C(=O)c2cccc(S(N)(=O)=O)c2)[nH]c2cc(Cl)ccc12` displayed a melting point of 250 to 251 °C. Regarding `CNC(=O)N(O)Cc1ccc2c(c1)OCc1ccccc1C2=O`, the melting point was in the range of 155 to 157 °C. As for `CC(=O)N[C@@H](CCC(N)=O)C(=O)NC1(C(=O)NCCCCNC(N)=NC#N)Cc2ccccc2C1`, the figure is 122 to 133 °C; as for `Cc1ccc([C@@H](C)NCc2ccc(O)cc2)cc1`, 114 to 116 °C.
